Reference: US20210046071A1, “TETRACYCLIC COMPOUNDS AND THEIR SALTS, COMPOSITIONS, AND METHODS FOR THEIR USE” (Senhwa Biosciences, Inc., priority 2019, published 2021)
pEC50: −log10 of the molar value.

Columns and labels:
Format in all cases: cell-based
A549 = assay: Alamar Blue cell viability assay, A549; conditions: Homo sapiens; A549, Lung
Method: (§1) The effect of Compound I on cell viability was assessed by Alamar Blue assay of metabolic activity in various cancer cell lines.

normal cells = assay: Alamar Blue cell viability assay, normal cells; conditions: compared with cancer cell lines
Method: as §1

THP-1 = assay: Alamar Blue cell viability assay, THP-1; conditions: Homo sapiens; THP-1, Leukemia
Method: as §1

Saos-2 = assay: Alamar Blue cell viability assay, Saos-2; conditions: Homo sapiens; Saos-2, Osteosarcoma
Method: as §1

With `Cc1cnc(CNC(=O)c2c(=O)c3ccc(N4CCCN(C)CC4)nc3n3c2sc2ccccc23)cn1` [Compound I, 2-(4-Methyl-[1,4]diazepan-1-yl)-5-oxo-5H-7-thia-1,11b-diaza-benzo[c]fluorene-6-carboxylic acid (5-methyl-pyrazin-2-ylmethyl)-amide] the pEC50 (A549) was 5.31, the “Activity in normal cells” value (normal cells) was “significantly less active” and the pEC50 (THP-1) was 7.33. For the same molecule, the pEC50 (Saos-2) was 5.30.
